{"source": "patent US20170333391A1", "about": "“METHOD FOR DELAYING THE ONSET OF PULMONARY FIBROSIS OR TREATING PULMONARY FIBROSIS” (EVERFRONT BIOTECH INC., priority 2016, published 2017)", "type_in_all_cases": "cell-based, human", "key": {"Sox2 protein": {"test_system": "Sox2 protein", "assay": "Sox2 protein expression in transfected NHLF (pcDNA3.1 empty vector or pcDNA3.1-SOX2), western blotting (2-3)", "conditions": "TGF-β1 5 ng/ml 12 h", "protocol": "The pcDNA3.1 empty vector and the pcDNA3.1-SOX2 plasmid (i.e., pcDNA3.1 vector containing SOX2 gene) were respectively transfected into Normal Human lung fibroblasts (NHLF) by the Fugene HD cell transfection reagent. The cells were screened to obtain NHLFs containing the pcDNA3.1 empty vector or the pcDNA3.1-SOX2 plasmid.\nNHLFs containing the pcDNA3.1 empty vector were then seeded into 6 cm culture dishes at a density of 2×10^5 cells/dish, comprising a control group and three experimental groups (4 dishes in total). The cells were cultured until the next day, and then the mediums were removed. Each group was respectively treated under the following conditions to conduct follow-up experiments: • (1) Control group I: cells were cultured in a FGM-2 medium containing 1% serum for 36 hours; • (2) Group A: cells were cultured in a FGM-2 medium containing 1% serum and TGF-β1 (5 ng/ml) for 36 hours; • (3) Group B: cells were firstly cultured in a FGM-2 medium containing 1% serum and TGF-β1 (5 ng/ml) for 12 hours, and then compound (1) was added into the medium to provide a final concentration of 15 μg/ml; thereafter, the cells were cultured for another 24 hours; and • (4) Group C: cells were firstly cultured in a FGM-2 medium containing 1% serum and TGF-β1 (5 ng/ml) for 12 hours, and then compound (1) was added into the medium to provide a final concentration of 30 μg/ml; thereafter, the cells were cultured for another 24 hours.\nIn another aspect, NHLFs containing the pcDNA3.1-SOX2 plasmid were seeded into the 6 cm culture dishes at a density of 2×10^5 cells/dish, comprising a control group and three experimental groups (4 dishes in total). The cells were cultured until the next day, and then the mediums were removed. Each group was respectively treated under the following conditions to conduct follow-up experiments: • (1) Control group II: cells were cultured in a FGM-2 medium containing 1% serum for 36 hours; • (2) Group D: cells were cultured in a FGM-2 medium containing 1% serum and TGF-β1 (5 ng/ml) for 36 hours; • (3) Group E: cells were firstly cultured in a FGM-2 medium containing 1% serum and TGF-β1 (5 ng/ml) for 12 hours, and then the compound (1) was added into the medium to provide a final concentration of 15 μg/ml; thereafter, the cells were cultured for another 24 hours; and • (4) Group F: cells were firstly cultured in a FGM-2 medium containing 1% serum and TGF-β1 (5 ng/ml) for 12 hours, and then the compound (1) was added into the medium to provide a final concentration of 30 μg/ml; thereafter, the cells were cultured for another 24 hours.\nThereafter, the proteins in the cells of each group were extracted, and the expressions of Sox2 protein, TGF-β protein and type I collagen in the NHLF cells of each group were measured with western blotting. […]"}, "TGF-β": {"test_system": "TGF-β", "assay": "TGF-β mRNA expression in NHLF, Q-PCR (3-2)", "conditions": "24 hours", "protocol": "Normal Human lung fibroblasts (NHLF) were seeded into 6-well plate at a density of 10^5 cells/well, comprising a control group and five experimental groups (6 wells in total). The cells were cultured until the next day, and then the mediums were removed. Each group was respectively treated under the following conditions to conduct follow-up experiments: • (1) Control group: cells were cultured in a FGM-2 medium containing 1% serum for 24 hours; • (2) Group α: cells were cultured in a FGM-2 medium containing 1% serum and compound (1) (5 μg/ml) for 24 hours; • (3) Group β: cells were cultured in a FGM-2 medium containing 1% serum and compound (1) (10 μg/ml) for 24 hours; • (4) Group γ: cells were cultured in a F-12K medium containing 1% serum and H2O2 (0.1 mM) for 24 hours; • (5) Group δ: cells were cultured in a F-12K medium containing 1% serum, H2O2 (0.1 mM) and compound (1) (5 μg/ml) for 24 hours; and • (6) Group ε: cells were cultured in a F-12K medium containing 1% serum, H2O2 (0.1 mM) and compound (1) (10 μg/ml) for 24 hours.\nThereafter, the total RNA of cells taken from each group were extracted, and then reverse transcription was conducted on the total RNA by using a QuantiTect Reverse Transcription Kit to obtain cDNA therefrom. A Q-PCR was then conducted on the cDNA to analyze the mRNA expression levels of genes such as α-SMA and TGF-β, wherein GAPDH gene served as an internal control. The results of the control group served as the basis for calculating the relative expression levels of the other groups."}, "p-smad2/3 protein": {"test_system": "p-smad2/3 protein", "assay": "p-smad2/3 protein expression in TGF-β1-induced NHLF, western blotting (Example 4)", "conditions": "uninduced control = 1, TGF-β1-only group A = 1.42", "protocol": "Normal Human lung fibroblasts (NHLF) were seeded into 6 cm culture dishes at a density of 2×10^5 cells/dish, comprising a control group and five experimental groups (6 dishes in total). The cells were cultured until the next day, and then the mediums were removed. Each group was respectively treated under the following conditions to conduct follow-up experiments: • (1) Control group: cells were cultured in a FGM-2 medium containing 1% serum for 36 hours; • (2) Group A: cells were cultured in a FGM-2 medium containing 1% serum and TGF-β1 (5 ng/ml) for 36 hours; • (3) Group B: cells were firstly cultured in a FGM-2 medium containing 1% serum and TGF-β1 (5 ng/ml) for 12 hours, and then compound (1) was added into the medium to provide a final concentration of 15 μg/ml; thereafter, the cells were cultured for another 24 hours; • (4) Group C: cells were firstly cultured in a FGM-2 medium containing 1% serum and TGF-β1 (5 ng/ml) for 12 hours, and then compound (1) was added into the medium to provide a final concentration of 30 μg/ml; thereafter, the cells were cultured for another 24 hours; • (5) Group D: cells were firstly cultured in a FGM-2 medium containing 1% serum and TGF-β1 (5 ng/ml) for 12 hours, and then compound (2) was added into the medium to provide a final concentration of 100 μg/ml; thereafter, the cells were cultured for another 24 hours; and • (6) Group E: cells were firstly cultured in a FGM-2 medium containing 1% serum and TGF-β1 (5 ng/ml) for 12 hours, and then compound (2) was added into the medium to provide a final concentration of 200 μg/ml; thereafter, the cells were cultured for another 24 hours.\nThereafter, the proteins in the cells of each group were extracted, and the expressions of BMP-7 protein, TGF-β protein and p-smad2/3 protein in the NHLF cells of each group were measured with western blotting. The results of the control group served as the basis for calculating the relative expression levels of the other groups."}}}
{"smiles": "CCCC=C1OC(=O)c2ccccc21", "note": "[compound (1)]", "values": [{"measurement": "Relative expression level (fold) Sox2 protein", "setting": "Sox2 protein; Group B: NHLF with pcDNA3.1 empty vector, then compound (1) 15 μg/ml 24 h, control group I = 1, TGF-β1-only group A = 1.55", "value": 1.81, "unit": "fold"}, {"measurement": "Relative expression level (fold) Sox2 protein", "setting": "Sox2 protein; Group C: NHLF with pcDNA3.1 empty vector, then compound (1) 30 μg/ml 24 h, control group I = 1, TGF-β1-only group A = 1.55", "value": 1.04, "unit": "fold"}, {"measurement": "Relative expression level (fold) Sox2 protein", "setting": "Sox2 protein; Group E: NHLF with pcDNA3.1-SOX2 plasmid, then compound (1) 15 μg/ml 24 h, control group II = 1, TGF-β1-only group D = 0.88", "value": 1.03, "unit": "fold"}, {"measurement": "Relative expression level (fold) Sox2 protein", "setting": "Sox2 protein; Group F: NHLF with pcDNA3.1-SOX2 plasmid, then compound (1) 30 μg/ml 24 h, control group II = 1, TGF-β1-only group D = 0.88", "value": 1.02, "unit": "fold"}, {"measurement": "Relative expression level (fold) TGF-β", "setting": "TGF-β; Group α: mRNA, FGM-2 medium 1% serum + compound (1) 5 μg/ml, control group = 1", "value": 0.61, "unit": "fold"}, {"measurement": "Relative expression level (fold) TGF-β", "setting": "TGF-β; Group β: mRNA, FGM-2 medium 1% serum + compound (1) 10 μg/ml, control group = 1", "value": 0.12, "unit": "fold"}, {"measurement": "Relative expression level (fold) TGF-β", "setting": "TGF-β; Group δ: mRNA, F-12K medium 1% serum + H2O2 0.1 mM + compound (1) 5 μg/ml, control group = 1, H2O2-only group γ = 0.34", "value": 0.42, "unit": "fold"}, {"measurement": "Relative expression level (fold) TGF-β", "setting": "TGF-β; Group ε: mRNA, F-12K medium 1% serum + H2O2 0.1 mM + compound (1) 10 μg/ml, control group = 1, H2O2-only group γ = 0.34", "value": 0.04, "unit": "fold"}, {"measurement": "Relative expression level (fold) p-smad2/3 protein", "setting": "p-smad2/3 protein; Group B: TGF-β1 5 ng/ml 12 h, then compound (1) 15 μg/ml 24 h", "value": 0.82, "unit": "fold"}, {"measurement": "Relative expression level (fold) p-smad2/3 protein", "setting": "p-smad2/3 protein; Group C: TGF-β1 5 ng/ml 12 h, then compound (1) 30 μg/ml 24 h", "value": 1.08, "unit": "fold"}]}
